US10913727B2, “Modulators of the integrated stress pathway” (Calico Life Sciences LLC, priority 2016, dated 2021)

The molecules below were run on HEK293T cells carrying the ATF4 luciferase reporter (assay: ATF4-Luc assay, in vitro model of Vanishing Cell White Matter Disease (VWMD)). Settings: Homo sapiens, HEK-293T, 1 μg/mL tunicamycin, 7 hours, One Glo luminescence.
Format: cell-based
Procedure, shortened: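 Stable HEK293T line with human ATF4 5′-UTR–firefly luciferase reporter treated with 1 μg/mL tunicamycin plus 200 nM compound for 7 h. Luminescence read; EC50 derived.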

Row | Structure (SMILES) | EC50 [nM]
1 | Cc1ccn2cc(C(=O)NC34CCC(NC(=O)COc5ccc(Cl)c(F)c5)(CC3)C(O)C4)nc2c1 (stereo not drawn) [Compound 598, N-{4-[2-(4-chloro-3-fluorophenoxy)acetamido]-3-hydroxybicyclo[2.2.2]octan-1-yl}-7-methylimidazo[1,2-a]pyridine-2-carboxamide] | 50 to 250
2 | O=C(COc1ccc(Cl)c(F)c1)NC12CC(NC(=O)c3cc(-c4ccc(Cl)cc4)no3)(C1)C2 [Compound 392, N-{3-[2-(4-chloro-3-fluorophenoxy)acetamido]bicyclo[1.1.1]pentan-1-yl}-3-(4-chlorophenyl)-1,2-oxazole-5-carboxamide] | < 50
3 | O=C(COc1ccc(Cl)c(Cl)c1)NC12CC(NC(=O)c3ccc(CO)nc3)(C1)C2 [Compound 719, N-{3-[2-(3,4-dichlorophenoxy)acetamido]bicyclo[1.1.1]pentan-1-yl}-6-(hydroxymethyl)pyridine-3-carboxamide] | 1000 to 2000
4 | O=C(COc1ccc(Cl)c(F)c1)NC12CCC(NC(=O)c3ccccn3)(CC1)[C@@H](O)C2 [Compound 588, N-{(2S)-4-[2-(4-chloro-3-fluorophenoxy)acetamido]-2-hydroxybicyclo[2.2.2]octan-1-yl}pyridine-2-carboxamide] | < 50
5 | O=C(COc1ccc(Cl)c(F)c1)NC12CC(Nc3nccc(-c4cnn(C(F)F)c4)n3)(C1)C2 [Compound 382, 2-(4-chloro-3-fluorophenoxy)-N-[3-({4-[1-(difluoromethyl)-1H-pyrazol-4-yl]pyrimidin-2-yl}amino)bicyclo[1.1.1]pentan-1-yl]acetamide] | > 2000
6 | O=C(COc1ccc(Cl)c(F)c1)NC12CC(NC(=O)c3ccc(O)nc3)(C1)C2 [Compound 322, N-{3-[2-(4-chloro-3-fluorophenoxy)acetamido]bicyclo[1.1.1]pentan-1-yl}-6-hydroxypyridine-3-carboxamide] | > 2000
7 | O=C(COc1ccc(Cl)c(F)c1)NC12CC(NC(=O)c3ccc(-c4ccccc4)cn3)(C1)C2 [Compound 928, N-{3-[2-(4-chloro-3-fluorophenoxy)acetamido]bicyclo[1.1.1]pentan-1-yl}-5-phenylpyridine-2-carboxamide] | 50 to 250
8 | Cn1cc(C(=O)NC23CC(NC(=O)COc4ccc(Cl)c(F)c4)(C2)C3)cn1 [Compound 246, N-{3-[2-(4-chloro-3-fluorophenoxy)acetamido]bicyclo[1.1.1]pentan-1-yl}-1-methyl-1H-pyrazole-4-carboxamide] | 250 to 1000
9 | N#Cc1cnc(NC23CC(NC(=O)COc4ccc(Cl)c(F)c4)(C2)C3)cn1 [Compound 720, 2-(4-chloro-3-fluorophenoxy)-N-{3-[(5-cyanopyrazin-2-yl)amino]bicyclo[1.1.1]pentan-1-yl}acetamide] | > 2000
10 | Cc1nc(C(=O)NC23CCC(NC(=O)COc4ccc(Cl)c(F)c4)(CC2)C(O)C3)nn1C (stereo not drawn) [Compound 657, N-{4-[2-(4-chloro-3-fluorophenoxy)acetamido]-3-hydroxybicyclo[2.2.2]octan-1-yl}-1,5-dimethyl-1H-1,2,4-triazole-3-carboxamide] | > 2000
11 | Cn1nc(C(=O)NC23CC(NC(=O)COc4ccc(Cl)c(F)c4)(C2)C3)cc1C(F)(F)F [Compound 789, N-{3-[2-(4-chloro-3-fluorophenoxy)acetamido]bicyclo[1.1.1]pentan-1-yl}-1-methyl-5-(trifluoromethyl)-1H-pyrazole-3-carboxamide] | 50 to 250
12 | Cc1ccc(C(=O)NC23CCC(NC(=O)COc4ccc(Cl)c(F)c4)(CC2)CC3O)nc1 (stereo not drawn) [Compound 169, N-{4-[2-(4-chloro-3-fluorophenoxy)acetamido]-2-hydroxybicyclo[2.2.2]octan-1-yl}-5-methylpyridine-2-carboxamide] | 50 to 250
13 | COc1ccsc1C(=O)NC12CC(NC(=O)COc3ccc(Cl)c(F)c3)(C1)C2 [Compound 548, N-{3-[2-(4-chloro-3-fluorophenoxy)acetamido]bicyclo[1.1.1]pentan-1-yl}-3-methoxythiophene-2-carboxamide] | > 2000
14 | O=C(COc1ccc(Cl)c(Cl)c1)NC12CC(NC(=O)c3cccnc3)(C1)C2 [Compound 456, N-{3-[2-(3,4-dichlorophenoxy)acetamido]bicyclo[1.1.1]pentan-1-yl}pyridine-3-carboxamide] | 50 to 250
15 | O=C(COc1ccc(Cl)c(F)c1)NC12CC(NC(=O)c3cnn(-c4ccccn4)c3)(C1)C2 [Compound 802, N-{3-[2-(4-chloro-3-fluorophenoxy)acetamido]bicyclo[1.1.1]pentan-1-yl}-1-(pyridin-2-yl)-1H-pyrazole-4-carboxamide] | > 2000
16 | CCc1cc(C(=O)NC23CCC(NC(=O)COc4ccc(Cl)c(F)c4)(CC2)[C@@H](O)C3)on1 [Compound 618, N-{(3S)-4-[2-(4-chloro-3-fluorophenoxy)acetamido]-3-hydroxybicyclo[2.2.2]octan-1-yl}-3-ethyl-1,2-oxazole-5-carboxamide] | < 50
17 | O=C(COc1ccc(Cl)c(F)c1)NC12CC(NC(=O)c3ccc4c(c3)OCCO4)(C1)C2 [Compound 387, N-{3-[2-(4-chloro-3-fluorophenoxy)acetamido]bicyclo[1.1.1]pentan-1-yl}-2,3-dihydro-1,4-benzodioxine-6-carboxamide] | 50 to 250

Row | Structure (SMILES) | EC50 [nM]
18 | Cc1ncc(C(=O)NC23CC(NC(=O)COc4ccc(Cl)c(Cl)c4)(C2)C3)s1 [Compound 585, N-{3-[2-(3,4-dichlorophenoxy)acetamido]bicyclo[1.1.1]pentan-1-yl}-2-methyl-1,3-thiazole-5-carboxamide] | 50 to 250
19 | O=C(COc1ccc(Cl)c(F)c1)NC12CC(NC(=O)c3ccnc(C(=O)NCCO)c3)(C1)C2 [Compound 288, N^4-{3-[2-(4-chloro-3-fluorophenoxy)acetamido]bicyclo[1.1.1]pentan-1-yl}-N^2-(2-hydroxyethyl)pyridine-2,4-dicarboxamide] | > 2000
20 | Cn1nc(C2CC2)cc1C(=O)NC12CC(NC(=O)COc3ccc(Cl)c(F)c3)(C1)C2 [Compound 329, N-{3-[2-(4-chloro-3-fluorophenoxy)acetamido]bicyclo[1.1.1]pentan-1-yl}-3-cyclopropyl-1-methyl-1H-pyrazole-5-carboxamide] | 50 to 250
21 | Cc1cncc(C(=O)NC23CCC(NC(=O)COc4ccc(Cl)c(F)c4)(CC2)C[C@@H]3O)n1 [Compound 734, N-{(2S)-4-[2-(4-chloro-3-fluorophenoxy)acetamido]-2-hydroxybicyclo[2.2.2]octan-1-yl}-6-methylpyrazine-2-carboxamide] | < 50
22 | Cc1cc(C(=O)NC23CCC(NC(=O)COc4ccc(Cl)c(F)c4)(CC2)[C@@H](O)C3)sn1 [Compound 679, N-{(3S)-4-[2-(4-chloro-3-fluorophenoxy)acetamido]-3-hydroxybicyclo[2.2.2]octan-1-yl}-3-methyl-1,2-thiazole-5-carboxamide] | < 50
23 | Cn1cc2ccnc(NC34CC(NC(=O)COc5ccc(Cl)c(F)c5)(C3)C4)c2n1 [Compound 493, 2-(4-chloro-3-fluorophenoxy)-N-{3-[(2-methyl-2H-pyrazolo[3,4-c]pyridin-7-yl)amino]bicyclo[1.1.1]pentan-1-yl}acetamide] | 50 to 250
24 | O=C(COc1ccc(Cl)c(F)c1)NC12CCC(NC(=O)c3cc(-c4c(F)cccc4F)no3)(CC1)CC2O (stereo not drawn) [Compound 409, N-{4-[2-(4-chloro-3-fluorophenoxy)acetamido]-3-hydroxybicyclo[2.2.2]octan-1-yl}-3-(2,6-difluorophenyl)-1,2-oxazole-5-carboxamide] | 50 to 250
25 | O=C(COc1ccc(Cl)c(F)c1)NC12CC(NC(=O)c3cc4ccccn4c3)(C1)C2 [Compound 689, N-{3-[2-(4-chloro-3-fluorophenoxy)acetamido]bicyclo[1.1.1]pentan-1-yl}indolizine-2-carboxamide] | 50 to 250
26 | Cc1cncc(NC23CC(NC(=O)COc4ccc(Cl)c(F)c4)(C2)C3)n1 [Compound 688, 2-(4-chloro-3-fluorophenoxy)-N-{3-[(6-methylpyrazin-2-yl)amino]bicyclo[1.1.1]pentan-1-yl}acetamide] | > 2000
27 | O=C(COc1ccc(Cl)c(F)c1)NC12CCC(NC(=O)c3ccncn3)(CC1)C(O)C2 (stereo not drawn) [Compound 226, N-{4-[2-(4-chloro-3-fluorophenoxy)acetamido]-2-hydroxybicyclo[2.2.2]octan-1-yl}pyrimidine-4-carboxamide] | 250 to 1000
28 | O=C(COc1ccc(Cl)c(F)c1)NC12CC(NC(=O)c3cccc4nsnc34)(C1)C2 [Compound 803, N-{3-[2-(4-chloro-3-fluorophenoxy)acetamido]bicyclo[1.1.1]pentan-1-yl}-2,1,3-benzothiadiazole-4-carboxamide] | > 2000
29 | Cn1cc(-c2cc(C(=O)NC34CC(NC(=O)COc5ccc(Cl)c(F)c5)(C3)C4)on2)cn1 [Compound 835, N-{3-[2-(4-chloro-3-fluorophenoxy)acetamido]bicyclo[1.1.1]pentan-1-yl}-3-(1-methyl-1H-pyrazol-4-yl)-1,2-oxazole-5-carboxamide] | 1000 to 2000
30 | O=C(COc1ccc(Cl)c(F)c1)NC12CC(Nc3cnccn3)(C1)C2 [Compound 725, 2-(4-chloro-3-fluorophenoxy)-N-{3-[(pyrazin-2-yl)amino]bicyclo[1.1.1]pentan-1-yl}acetamide] | 1000 to 2000
31 | CCc1ccc(C(=O)NC23CC(NC(=O)COc4ccc(Cl)c(F)c4)(C2)C3)o1 [Compound 250, N-{3-[2-(4-chloro-3-fluorophenoxy)acetamido]bicyclo[1.1.1]pentan-1-yl}-5-ethylfuran-2-carboxamide] | < 50
32 | Cc1cc(C(=O)NC23CCC(NC(=O)COc4ccc(Cl)c(F)c4)(CC2)C(O)C3)oc1C (stereo not drawn) [Compound 474, N-{4-[2-(4-chloro-3-fluorophenoxy)acetamido]-3-hydroxybicyclo[2.2.2]octan-1-yl}-4,5-dimethylfuran-2-carboxamide] | 50 to 250
33 | O=C(COc1ccc(Cl)c(F)c1)NC12CC(NC(=O)c3ccc(N4CCCC4)cn3)(C1)C2 [Compound 123, N-{3-[2-(4-chloro-3-fluorophenoxy)acetamido]bicyclo[1.1.1]pentan-1-yl}-5-(pyrrolidin-1-yl)pyridine-2-carboxamide] | 250 to 1000
